This is an account of results in US9458437B2, “Neuroprotective peptides that inhibit interaction between palmitoyl acyl transferase zinc-finger DHHC type containing 17 (zD17) and c-jun N-terminal kinase (JNK)” (The University of British Columbia, priority 2011, dated 2016).

The target in one assay is T1, JNK3 (Rattus norvegicus, UniProt P49187).
T1 construct: cell lysates were prepared and JNK was immunoprecipitated with specific antibodies; endogenous in cells; host or cells: rat primary neuronal cultures; JNK3 immunoprecipitated from lysate
Description: kinase assay (KA) on JNK3 immunoprecipitated from cell lysates. The format is cell-based. To be noted: for JNK3 activity normalized to 0 h: NMDA + NIMoE. How it is done: JNK activity was measured with an in vitro kinase assay as described elsewhere (see, for e.g.: Khatlani et al., 2007). Briefly, cell lysates were prepared and JNK was immunoprecipitated with specific antibodies. The immnoprecipitates were then resuspended in 1× kinase buffer (Cell Signaling Technology™) supplemented with 200 μM ATP and 250 μg/ml GST-c-jun (1-89), and incubated at 30° C. for 30 min. Reactions were terminated by the addition of SDS-PAGE sample buffer. Phosphorylated c-jun was resolved by SDS-PAGE and detected with anti-p-c-jun.

The subject of assay [1] is middle cerebral artery occlusion (MCAo). In words: transient MCAo in SD rats, infarct volume (TTC histology). In kind it is in vivo, Sprague-Dawley rat.
For assay [2] the test system is unchanged. Description: transient MCAo in SD rats, neurological scores. The format is in vivo, Sprague-Dawley rat. Further details: key: summed neurological score, 0 to 27.
The test system is the same in assay [3]. Description: transient MCAo in SD rats, adhesive removal test (ART). More on the design: unit not given here. The format is in vivo, Sprague-Dawley rat. To be noted: peptide given 4 h after MCAo onset.
Another assay concerns the target zD17-JNK3 interaction (Rattus norvegicus, UniProt P49187). Description: co-immunoprecipitation of zD17 with JNK3 in cortical neuronal cultures. In kind it is cell-based. More on the design: diminished the co-immunoprecipitation of zD17 with JNK3; endogenous in cells; host or cells: primary cortical neurons of embryonic (E18-19) Wistar rat. The method, then: (§1) All animal experiments were approved by the Animal Care Committee of the University of British Columbia. Primary cortical cultures were prepared from Wistar rat (UBC Animal Care Centre, Vancouver, BC, Canada) brains at embryonic days 18-19. Cultures were maintained in Neurobasal medium supplemented with B27 and 0.5 mM glutamax (Invitrogen™) as described previously (Yang et al., 2009).
(§2) The protocols for protein extraction have been described previously (Yang et al., 2009). For co-immunoprecipitation, cultured cells were washed with ice-cold PBS followed by incubation with 0.5 ml Gentle Lysis Buffer (GLB) containing 25 mM Tris-HCl (pH 7.4), 2 mM EDTA, 1 mM EGTA, 10 mM NaCl, 0.5% Triton X-100 and 10% Glycerol supplemented with the Complete Protease Inhibitor Tablets (Roche Applied Science™, Indianapolis, Ind., USA) and 1 mM PMSF. Total protein concentration was determined with the BioRad™ Protein Assay kit. Lysates were first precleaned by incubating with Protein A-Sepharose beads (Roche Applied Science™) for 1 h at 4° C., followed by incubation with indicated antibodies (>16 h at 4° C.) and protein A Sepharose bead (2 h at 4° C.). Lysates of rat brain tissues were precleaned with IgG and protein A-beads. Immunoprecipitates were washed three times with GLB buffer; boiled in 2× loading buffer with 1 mM dithiothreitol (DTT) for 3 min; and analyzed with SDS-PAGE as described previously (Yang et al., 2009). The relative intensities of the bands on immunoblots were analyzed and quantified using Image J™ (NIH).

The next assay addresses T2, zD17-JNK2 interaction (Rattus norvegicus, UniProt P49186).
T2 construct: endogenous in cells; host or cells: primary cortical neurons of embryonic Wistar rat
In words: co-immunoprecipitation of zD17 with JNK2 in neuronal cultures. In kind it is cell-based. The conditions noted are these: NMDA. How it is done:
as §1, §2

For a further assay, the system named is cultured neurons. Description: axonal development in cultured neurons (Tau-1 labelling). The format is cell-based, rat. The method, then: For biochemical studies, neurons were seeded in six-well culture plates with a density of 7.5×10^5 cells per well. For LDH assay and cell death detection, 24-well culture plates were used with a neuron density of 2.5×10^5 cells per well. Neurons of 14-17 days in vitro (DIV) were used for experiments. […] HEK 293 cells were maintained in DMEM (Invitrogen™) supplemented with 10% fetal bovine serum and 1% penicillin/streptomycin. For protein expression in cell lines, cells were transfected with Calcium Phosphate Transfection reagent (Promega™, San Luis Obispo, Calif., USA) and used 24 h later as described previously (Yang et al., 2009). The JNK inhibitor, L-JNKI, was purchased from Alexis Biochemicals™ (San Diego, Calif.). Thrombin was obtained from BIOPUR™ (Bubendorf, Switzerland). Other assay reagents without indication were obtained from Sigma™.
Cultured hippocampal neurons on glass coverslips were used for immunostaining. After treatments indicated in the text, neurons were fixed with 2% paraformaldehyde for 3 min at room temperature followed by permeabilization with ice-cold methanol for 10 min at −20° C. The coverslips were then washed three times with PBS and immunostained with appropriate antibodies dissolved in PBS for 1 h at room temperature. After washing three times with PBS, coverslips were incubated with Alexa-labeled secondary antibodies from Invitrogen for an additional 1 h. For mitochondrial detection, neuronal cultures were incubated at 37° C. for 30 min with 2 μM MitoTracker-TR (Invitrogen™). Coverslips were then fixed and mounted with ProLong Gold Antifade Reagent (Invitrogen™). Fluorescence was captured using a Zeiss Observer Z1™ microscope and all images were analyzed with ImageJ™ and processed using Adobe Photoshop™.

A further assay deals with c-jun. In words: NMDA-induced c-jun phosphorylation in neurons. The format is cell-based, rat. The conditions noted are these: neuronal cultures.
For a further assay, the system named is caspase-3. In words: NMDA-induced caspase-3 cleavage in neurons. The format is cell-based, rat. To be noted: neuronal cultures.
The test system of another assay is Bax and Cyt.c. Description: NMDA-induced translocation of Bax and Cyt.c (mitochondria fractionation). To be noted: neuronal cultures. The format is cell-based, rat. How it is done:
Cultured neurons were lysed on ice for 10 min in TEEN-SKM buffer containing 20 mM Tris-HCl (pH7.5), 10 mM KCl, 1.5 mM MgCl2, 1 mM EGTA, 1 mM EDTA, 1 mM DTT supplemented with the Complete Protease Inhibitor tablets. The lysates were homogenized with a 28^1/2G syringe for a total of 8 times on ice, followed by centrifugation twice at 700 g for 10 min at 4° C. The supernatant was then centrifuged at 10,000 g for 30 min at 4° C. to enrich mitochondria in the pellet. The cytosolic fraction was collected from the supernatant after further centrifugation at 100,000 g for 1 h at 4° C. 1× and 4×LB were added to the mitochondrial and cytosolic fractions, respectively. Equivalent amounts of samples were resolved by SDS-PAGE and blotted with antibodies against Cytochrome c and Bax.

Where [4] appears, read: peptide given 4 h after MCAo onset, day-1.
[5] abbreviates: peptide given 4 h after MCAo onset, day-3.
[6] abbreviates: peptide given 4 h after MCAo onset, day-7.
[7] abbreviates: peptide given 4 h after MCAo onset, day-14.

Sequence of zD17-JNK3 interaction (P49187 whole entry): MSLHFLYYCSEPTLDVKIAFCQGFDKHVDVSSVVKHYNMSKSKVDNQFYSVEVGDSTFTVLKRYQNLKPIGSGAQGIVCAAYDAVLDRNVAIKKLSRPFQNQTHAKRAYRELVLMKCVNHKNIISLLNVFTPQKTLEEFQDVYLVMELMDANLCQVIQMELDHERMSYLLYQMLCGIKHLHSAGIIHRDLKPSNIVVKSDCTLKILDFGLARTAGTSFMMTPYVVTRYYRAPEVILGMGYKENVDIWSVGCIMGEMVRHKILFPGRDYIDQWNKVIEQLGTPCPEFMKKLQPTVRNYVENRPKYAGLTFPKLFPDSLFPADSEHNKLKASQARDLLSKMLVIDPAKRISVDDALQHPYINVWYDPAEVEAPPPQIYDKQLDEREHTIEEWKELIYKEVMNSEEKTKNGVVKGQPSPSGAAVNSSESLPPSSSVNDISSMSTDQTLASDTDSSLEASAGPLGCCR
T1 sequence (P49187 whole entry): as above

“HRYRWLTDLLSMVTTPAAPM (NIMoEscr scrambled NIMoE) [negative control peptide resulting from a scrambled NIMoE, reference compound]”: the “enhancement of JNK3 activity induced by NMDA” value in the assay with JNK3 (neuronal cultures) is listed as “did not selectively block enhancement”. This sequence also yielded a total infarct volume in [1] (scrambled control peptide group, injection time not given) of 212.60±37.6 mm^3. Also, the neurological scores is listed as 18.60±1.24 in assay [2] (22 h after onset of MCAo, scrambled control peptide group); 19.25±0.80 in assay [2] (setting [4]); 13.63±1.03 in assay [2] (setting [5]); 7.13±0.58 in assay [2] (setting [6]); 4.38±0.50 in assay [2] (setting [7]). Moreover, the ART in assay [3] (day-1) came out at 12.63±3.14; in assay [3] (day-3), 34.13±6.88; in [3] (day-7), 59.13±5.67; in assay [3] (day-14) it was 81.88±4.44. Besides, the “enhancement of the zD17-JNK3 interaction induced by NMDA/excitotoxicity” value with zD17-JNK3 interaction is listed as “did not selectively block enhancement”.
Consider “MTPLMWAAYRTHSVDPTRLL (listed as Homo sapiens) [NIMoE, peptide comprising motif-E of zD17, fused to the cell-membrane transduction domain of HIV-1 Tat for cell experiments]”, for which, in the assay with zD17-JNK2 interaction, the “enhancement of the JNK2-zD17 interaction” value is recorded as “eliminated the enhancement”. Further, in the assay with JNK3 (0.5 h), the “JNK3 activity normalized to 0 h” value was found to be 90.6±5.3%. Further, the “JNK3 activity normalized to 0 h” value in the assay with JNK3 (1 h) turned out to be 47.0±17.6%. Besides, in the assay with JNK3 (neuronal cultures), the “JNK3 basal activity” value is “no effect” and the “enhancement of JNK3 activity induced by NMDA” value is on record as “selectively blocked the enhancement”. For the same sequence, the “JNK3 basal activity, fold change to control” value with JNK3 (pretreatment of cells 1 μM for 2 h) is given as 0.89±0.10 fold. Besides, the “axon extension (length)” value in the assay with cultured neurons (NIMoE incubation, control 160.0±8.9) was 161.1±13.6. In addition, in the assay with cultured neurons (chronic incubation in cultured neurons), the “effect on axon initiation and extension” value is listed as “did not affect”. The “axon initiation rate normalized to control” value in the assay on cultured neurons (incubation of cultured neurons, Tau-1 marker) was found to be 98.6±0.2%. Moreover, in the assay on c-jun, the NMDA-induced c-jun phosphorylation result was “able to prevent”. For the same sequence, the “NMDA-induced caspase-3 cleavage” value in the assay with caspase-3 is recorded as “effectively blocked”. In the assay with Bax and Cyt.c, the “NMDA-induced translocation of Bax and Cyt.c” value was “inhibited”. The “enhancement of the zD17-JNK3 interaction induced by NMDA/excitotoxicity” value with zD17-JNK3 interaction is given as “selectively blocked the enhancement”. Moreover, in the assay with zD17-JNK3 interaction (no NMDA), the “zD17-JNK3 interaction (co-immunoprecipitation), baseline” value is reported as “no effect”.
In the case of “WAAYRTHSVD (listed as Homo sapiens) [NIMoEsh, shorter 10mer of NIMoE, primarily the loop region of motif-E (zD17 196-205)]”, the NMDA-induced c-jun phosphorylation entry in the assay on c-jun is on record as “able to prevent”. For the same sequence, in the assay on caspase-3, the “NMDA-induced caspase-3 cleavage” value is on record as “effectively blocked”. Also, in the assay with Bax and Cyt.c, the “NMDA-induced translocation of Bax and Cyt.c” value was “inhibited”. Besides, in assay [1] (post-surgical interventions at 2 h or 4 h), the “infarct volume compared with non-treated, saline-treated and scramble peptide-treated groups” value is on record as “effective protection for the ischemic brain”. Moreover, the total infarct volume in [1] (single i.v. injection +2 h after MCAo onset) was found to be 41.95±8.22 mm^3; in assay [1] (single i.v. injection +4 h after MCAo onset) it was 78.74±28.50 mm^3; in [1] (single i.v. injection −0.5 h (before MCAo onset), control 240.70±35.67) it was 43.43±9.82 mm^3. The “reduction of total infarct size” value in assay [1] (single intravenous injection 30 min before MCAo) is “about 80%”. In addition, the neurological scores in [2] (22 h after onset of MCAo, injection +2 h) turned out to be 8.50±0.75; in assay [2] (22 h after onset of MCAo, injection +4 h) it was 11.20±1.49; in [2] (22 h after onset of MCAo, injection −0.5 h, scale 0 to 27), 8.00±0.72; in assay [2] (setting [4]) it was 11.43±1.96; in [2] (setting [5]) it was 5.86±1.14; in assay [2] (setting [6]), 1.71±0.47. Further, the neurological scores in assay [2] (setting [7]) stood at 0.85±0.34. The ART came to 52.57±6.82 in assay [3] (day-1), 73.86±9.63 in assay [3] (day-3), 94.86±7.33 in assay [3] (day-7) and 101.43±3.35 in assay [3] (day-14).
